Measurements reported in patent publication US20240091235A1, “USE AS SELECTIVE AGONIST OF MELANOCORTIN-4 RECEPTOR” (priority 2020, published 2024).
Counter-ions that a name gives are not always drawn.

Columns and labels:
[1] = molecular target: T1, MC1R (Homo sapiens, UniProt Q01726); assay: Pathhunter eXpress β-arrestin assay (U2OS cell line), MC1R; type: cell-based; set-up: expressed in transfected cells; host or cells: U2OS (Pathhunter eXpress β-arrestin cell line); conditions: 90 minutes at 37° C.
From the text: (§1) A Pathhunter eXpress β-arrestin cell line (U2OS cell line) in which Prolink (PK)-tagged MC1R and MC4R, and enzyme acceptor (EA)-tagged β-arrestin were expressed together was established. When the MCR-PK portion of this cell line is activated, β-arrestin-EA is mobilized, and enzyme acceptor (EA) and Prolink (PK), which are the β-galactosidase enzyme fragments, interact. The activated enzyme hydrolyzes the substrate by β-galactosidase activity to produce a chemiluminescent signal, so that the activity can be measured. After the Pathhunter eXpress β-arrestin cell line (U2OS cell line) was incubated, the cells were inoculated into each well of the cell culture plate and incubated for 48 hours in a 37° C. incubator in the presence of 5% CO2. After the incubation, 5 μL of the sample diluted 5 times with buffer was added, the vehicle concentration was set to 1%, and the MC4R agonist compound diluted at each step concentration was added, followed by reaction at 37° C. for 90 minutes. The activity (%) of each agonist compound is expressed as 100%×(average RLU value of sample−average RLU value of vehicle control)/(average maximum value of control ligand−average RLU value of vehicle control), and the value was analyzed by CBIS data analysis suite (ChemInnovation, CA).
Target sequence in this assay (Q01726 whole entry, the tested form may be a part): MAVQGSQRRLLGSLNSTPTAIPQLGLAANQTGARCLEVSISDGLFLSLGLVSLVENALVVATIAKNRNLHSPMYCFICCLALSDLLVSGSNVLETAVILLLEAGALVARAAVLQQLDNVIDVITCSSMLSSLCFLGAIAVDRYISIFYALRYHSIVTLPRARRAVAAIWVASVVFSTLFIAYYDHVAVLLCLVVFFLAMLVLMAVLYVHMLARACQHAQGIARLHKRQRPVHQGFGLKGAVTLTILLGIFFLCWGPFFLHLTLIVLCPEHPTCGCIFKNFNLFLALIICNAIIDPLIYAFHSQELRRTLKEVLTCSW
Target sequence in this assay (P32121 whole entry partner, the tested form may be a part): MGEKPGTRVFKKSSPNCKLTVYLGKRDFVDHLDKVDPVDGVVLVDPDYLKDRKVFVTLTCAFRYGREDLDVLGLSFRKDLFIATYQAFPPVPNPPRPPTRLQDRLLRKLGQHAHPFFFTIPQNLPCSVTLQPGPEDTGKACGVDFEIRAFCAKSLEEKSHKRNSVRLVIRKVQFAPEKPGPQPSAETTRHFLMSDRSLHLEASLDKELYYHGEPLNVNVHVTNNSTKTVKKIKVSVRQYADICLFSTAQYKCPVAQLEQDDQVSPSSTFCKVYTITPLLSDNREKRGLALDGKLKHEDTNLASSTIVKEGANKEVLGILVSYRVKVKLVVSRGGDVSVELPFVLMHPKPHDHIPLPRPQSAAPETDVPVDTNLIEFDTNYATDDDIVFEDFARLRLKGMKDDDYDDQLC

[2] = molecular target: T2, melanocortin-4 receptor (MC4R) (Homo sapiens, UniProt P32245); assay: Luciferase assay (CRE-LUC), HEK MC4R-Luc cells; type: cell-based
T2 construct: expressed in transfected cells

[3] = molecular target: T3, MC4R (Homo sapiens, UniProt P32245); assay: Binding affinity, membranes of HEK-293 cell lines expressing MC4R; set-up: expressed in transfected cells
Procedure: After the CHO-K1 cell line expressing human recombinant MC1R and the HEK-293 cell lines expressing MC4R were established, membranes were collected from each cell line. In a 96-well cell culture plate, the cell line membrane and 25 mM HEPES-KOH adsorption buffer (pH 7.0) containing the MCR agonist diluted at each step concentration were added, and the reaction was carried out. EC50 was calculated as a concentration that induces 50% of the maximum binding that can be induced by each agonist, and the results are represented in Table 2.
Target sequence in this assay (P32245 whole entry): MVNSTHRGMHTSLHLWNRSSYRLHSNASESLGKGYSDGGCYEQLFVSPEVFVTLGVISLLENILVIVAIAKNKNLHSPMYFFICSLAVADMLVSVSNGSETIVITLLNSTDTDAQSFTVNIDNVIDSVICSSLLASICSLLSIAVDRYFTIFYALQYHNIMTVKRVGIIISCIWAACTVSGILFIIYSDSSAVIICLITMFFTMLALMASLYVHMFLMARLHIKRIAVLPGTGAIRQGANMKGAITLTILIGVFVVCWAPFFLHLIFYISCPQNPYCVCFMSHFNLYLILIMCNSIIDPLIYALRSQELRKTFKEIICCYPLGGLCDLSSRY

[4] = molecular target: T1, MC1R; assay: cAMP Hunter Gs-coupled cAMP assay (CHO-K1 cell line), MC1R; type: cell-based; set-up: expressed in transfected cells; host or cells: CHO-K1 (cAMP Hunter Gs-coupled cell line); conditions: 30 minutes at 37° C.
Procedure: (§2) After cAMP Hunter Gs-coupled cell lines (CHO-K1 cell line) in which each of MC1R and MC4R was overexpressed were established so that the increase in the cAMP level in cells due to agonist reaction was measurable, the cells were inoculated into each well of a white cell culture plate and incubated for 24 hours in a 37° C. incubator in the presence of 5% CO2. After the incubation, the medium was removed, and 15 μL of a 2:1 HBBS/10 mM HEPES:cAMP XS+Ab reagent was added. After 5 μL of the sample diluted 4 times with buffer was added, the vehicle concentration was set to 1%, and the MC4R agonist compound diluted at each step concentration was added, followed by reaction at 37° C. for 30 minutes. The activity (%) of each agonist compound is expressed as 100%×(average RLU value of sample−average RLU value of vehicle control)/(average RLU value of max control−average RLU value of vehicle control), and the value was analyzed by CBIS data analysis suite (ChemInnovation, CA).
Target sequence in this assay (Q01726 whole entry, the tested form may be a part): as the sequence (Q01726 whole entry, the tested form may be a part) above

[5] = mouse, in vivo
Procedure: With respect to skin pigmentation—which is an off-target effect of MC4R agonist, the distribution and accumulation of the drug were evaluated by measuring the drug concentration in the skin and plasma after repeated administration in a db/db mouse model lacking leptin receptor.

[6] = molecular target: T4, melanocortin-1 receptor (MC1R) (Homo sapiens, UniProt Q01726); assay: Luciferase assay (CRE-LUC), HEK MC1R-Luc cells; type: cell-based; conditions: luminescence relative to 10 μM NDP-α-MSH
T4 construct: expressed in transfected cells
Procedure: In order to measure the agonist ability for melanocortin-1 receptor (MC1R) and melanocortin-4 receptor (MC4R), a cell line that permanently expresses MC1R, MC4R and the luciferase gene (CRE-LUC) under the control of CRE (cAMP response element) was established.
After a mammalian cell expression vector (pCDNA3 (Neo)) (Invitrogen) containing the MC1R and MC4R genes was prepared, human embryonic kidney (HEK) cell lines were transformed by using Lipofectamine 2000 (Invitrogen) together with a vector (pCRE-Luc)(Stratagen) expressing a luciferase gene (CRE-LUC) under the control of a cAMP response element (CRE). […] Each well was treated with 50 μL of a Bright-Glo luciferase reagent (Promega) and left at room temperature for 15 minutes, and then the luminescence of each well was measured by using a luminometer (Victor).
HEK MC1R-Luc cells and HEK MC4R-Luc cells were added to each well of a 96-well luminometer cell culture plate (Costar) to a size of 2.5×10^4 cells in 100 μL of a culture medium and then incubated in a 37° C. incubator in the presence of 6% CO2 for 18 hours. […] Each well was treated with 50 μL of a Bright-Glo luciferase reagent (Promega) and left at room temperature for five minutes, and then the luminescence of each well was measured by using a luminometer (Victor). […] The measurements were measured using statistical software (Prizm).

[7] = molecular target: T3, MC4R; assay: Pathhunter eXpress β-arrestin assay (U2OS cell line), MC4R; type: cell-based; set-up: expressed in transfected cells; host or cells: U2OS (Pathhunter eXpress β-arrestin cell line)
From the text: as §1
Target sequence in this assay (P32245 whole entry): as the sequence (P32245 whole entry) above
Target sequence in this assay (P32121 whole entry partner): as the sequence (P32121 whole entry partner, the tested form may be a part) above

[8] = molecular target: T3, MC4R; assay: cAMP Hunter Gs-coupled cAMP assay (CHO-K1 cell line), MC4R; type: cell-based; set-up: expressed in transfected cells; host or cells: CHO-K1 (cAMP Hunter Gs-coupled cell line)
Procedure: as §2
Target sequence in this assay (P32245 whole entry): as the sequence (P32245 whole entry) above

[9] = test system: skin and skin hair pigmentation; assay: Skin pigmentation in repeated toxicity test in monkeys; type: in vivo; conditions: repeatedly administered for 2 weeks, FIG. 2
Procedure: In order to confirm the possibility of occurrence of skin pigmentation—which is an off-target effect of MC4R agonist, pigmentation patterns in the skin and skin hair were measured in a repeated toxicity test in monkeys, and the results are represented in FIG. 2.

[10] = molecular target: T1, MC1R; assay: Binding affinity, membranes of CHO-K1 cell line expressing human recombinant MC1R; set-up: expressed in transfected cells; host or cells: CHO-K1 (membranes); conditions: 25 mM HEPES-KOH buffer pH 7.0
Procedure: In a 96-well cell culture plate, the cell line membrane and 25 mM HEPES-KOH adsorption buffer (pH 7.0) containing the MCR agonist diluted at each step concentration were added, and the reaction was carried out.
Target sequence in this assay (Q01726 whole entry, the tested form may be a part): as the sequence (Q01726 whole entry, the tested form may be a part) above

[11] = test system: skin pigmentation; conditions: reported, Clement et al., Nature Medicine, 2018; cited from earlier work
[12] = ratio of EC50 in MC1R to EC50 in MC4R

T2 sequence (P32245 whole entry): as the sequence (P32245 whole entry) above
T4 sequence (Q01726 whole entry): as the sequence (Q01726 whole entry, the tested form may be a part) above

| EC50 [1] [nM] | EC50 ([2]; HEK MC4R-Luc cells, luminescence relative to 10 μM NDP-α-MSH) [nM] | Ratio MC1R/MC4R (Luciferase) [2, 12] | EC50 ([3]; HEK-293 membranes, 25 mM HEPES-KOH buffer pH 7.0) [nM] | Ratio MC1R/MC4R (Binding) [3, 12] | EC50 [4] [nM] | EC50 [6] [nM] | EC50 ([7]; U2OS cell line, 90 minutes at 37° C.) [nM] | Ratio MC1R/MC4R (β-Arrestin) [7, 12] | EC50 ([8]; CHO-K1 cell line, 30 minutes at 37° C.) [nM] | Ratio MC1R/MC4R (cAMP) [8, 12] | EC50 [10] [nM] | SMILES | Accumulation of drug in the skin [5] | Pigmentation on the skin and skin hair [9] | Skin pigmentation in clinical trials [11] |
| --- | --- | --- | --- | --- | --- | --- | --- | --- | --- | --- | --- | --- | --- | --- | --- |
| 195 | 0.434 | 5.76 | 62 | 5.00 | 84.8 | 2.5 | 5.14 | 37.98 | 16.3 | 5.21 | 310 | CC(C)C(=O)N([C@H]1C[C@@H](C(=O)N2CCOCC2)N(C(=O)[C@@H]2CN(C(C)(C)C)C[C@H]2c2ccc(Cl)cc2)C1)[C@H]1CC[C@@H](C)CC1.Cl [Test Compound, N-((3S,5S)-1-((3S,4R)-1-(tert-butyl)-4-(4-chlorophenyl)pyrrolidine-3-carbonyl)-5-(morpholine-4-carbonyl)pyrrolidin-3-yl)-N-((1s,4R)-4-methylcyclohexyl)isobutyramide hydrochloride] | did not relatively accumulate in the skin | pigmentation did not appear on the skin and skin hair | – |
| – | – | – | – | – | – | – | – | – | – | – | – | CC(=O)N[C@@H](CCCNC(=N)N)C(=O)N[C@H]1CSSC[C@@H](C(N)=O)NC(=O)[C@H](Cc2c[nH]c3ccccc23)NC(=O)[C@H](CCCNC(=N)N)NC(=O)[C@@H](Cc2ccccc2)NC(=O)[C@H](Cc2c[nH]cn2)NC(=O)[C@@H](C)NC1=O [setmelanotide, Ac-RC[dA]H[dF]RWC-NH2 (disulfide) (AcOH salt)] | – | – | show skin pigmentation |
